From patent US20200010857A1 (priority 2016, published 2020)
Like-named read-outs stand apart in the source and are kept apart here.

Key:
[1] = system: Salinicoccus sp. QW6; conditions: K2TeO3 in rich medium, aerobic; Amoozegar et al. (2008); cited from earlier work
[2] = system: bacterial cells; conditions: cited from earlier work
[3] = system: Bacillus sp. BZ; conditions: K2TeO3 in rich medium, aerobic; Zare et al. (2012); cited from earlier work
[4] = system: Paenibacillus TeW; conditions: K2TeO3 in rich medium, aerobic; Chien et al. (2009); cited from earlier work
[5] = system: Lysinibacillus sp. ZYM-1; conditions: K2TeO3 in rich medium, aerobic; Zao et al. (2016); cited from earlier work
[6] = system: Corynebacterium difteriaes; conditions: K2TeO3 in rich medium, aerobic; Tucker et al. (1961); cited from earlier work
[7] = system: Rhodococcus aetherivorans BCP1; assay: Minimal Inhibitory Concentration (MIC) of tellurite, kill curve; assay type: cell-based; conditions: for log reduction of BCP1 viable cells: 24 h
Description: The strain Rhodococcus aetherivorans BCP1 (DSM 44980) was pre-cultured in 250 mL Erlenmeyer Baffled Flask for 2 days, containing 25 mL of Luria-Bertani medium (here indicated as LB) [composed of (g/L) NaCl, 10; Yeast Extract, 5; Tryptone, 10]. When necessary, the medium was solidified by adding 15 g/L of Agar. BCP1 cells were then inoculated (1% v/v) and grown for 5 days in 50 mL of LB medium supplied with either 100 (0.4 mM) or 500 (2 mM) μg/mL of K2TeO3. Here we refer to this first bacterial growth as unconditioned. After this growth step, BCP1 cells were re-inoculated (1% v/v) and cultured for other 5 days in 50 mL of fresh LB medium and 100 or 500 μg/mL of K2TeO3. This secondary bacterial growth is here defined as conditioned. Each culture was incubated aerobically at 30° C. with shaking (150 rpm). In order to evaluate the bacterial growth rate, every 24 h an aliquot (100 μL) of BCP1 cells was collected from each culture and serially diluted in sterile saline solution (NaCl 0.9% w/v). The cells were recovered on LB agar plates for 48 h at 30° C. The number of growing cells is reported as average of the Colony Forming Unit per milliliter (CFU mL^−1) counted for each biological trial (n=3) with standard deviation. All the reagents were purchased from Sigma-Aldrich®.
After 24 h of incubation the number of viable cells was determined by spot plates count on LB agar recovery plates. The assay was conducted in triplicate and the data are reported as average of the CFU mL-1 counted with standard deviation. The established MIC and corresponding kill curve was used to choose the best concentration of K2TeO3 to use for nano-material production.

[8] = system: Bacillus sp. STG-83; conditions: K2TeO3 in rich medium, aerobic; Soudi et al.(2009); cited from earlier work
[9] = system: Rhodococcus aetherivorans BCP1; assay: Tolerance of BCP1 towards SeO3^2− oxyanions (MIC^Se); assay type: cell-based
Description: (§1) Rhodococcus aetherivorans BCP1 strain (DSM 44980) was pre-cultured in 250 mL Erlenmeyer Baffled Flask for 48 h in 25 mL of Luria-Bertani medium (indicated as LB) [containing (g/L) NaCl, 10; Yeast Extract, 5; Tryptone, 10]. When necessary the medium was solidified by adding 15 g/L of Agar. BCP1 cells were then inoculated (1% v/v) and grown for 120 h in 50 mL of LB broth to which was added either 0.5 mM or 2 mM of Na2SeO3. This first bacterial growth is here defined as unconditioned. After the unconditioned growth, BCP1 cells were re-inoculated (1% v/v) and cultured for other 120 h in 50 mL of fresh LB medium supplied with a new addition of either 0.5 or 2 mM of Na2SeO3. Here we refer to this bacterial growth as conditioned. Unconditioned or conditioned cultures were incubated aerobically at 30° C. with shaking (150 rpm). Bacterial growth rate was evaluated by spot plate count method every 24 h over the incubation time. LB agar plates containing the spotted cells were recovered for 48 h at 30° C. The number of growing cells is reported as mean the Colony forming Unit (log10[CFU/mL]) with standard deviation. All the reagents were purchased from Sigma-Aldrich®.
The BCP1 strain has been exposed to different concentrations of Na2SeO3, ranging from 0.5 to 200 mM as initial concentration to evaluate its tolerance towards these toxic oxyanions. Briefly, after 24 h of exposure to each concentration of Na2SeO3 tested, BCP1 cells were serially diluted in sterile saline solution (NaCl 0.9% w/v) and the number of viable cells were determined by spot plates count on LB agar recovery plates. The assay was conducted in triplicate and the viable cell numbers are indicated as the average of the log10[CFU/mL] with standard deviation.

[10] = system: Rhodococcus aetherivorans BCP1; assay: Growth of BCP1 in LB supplied with Na2SeO3 (spot plate count); assay type: cell-based; conditions: unconditioned cells
Description: as §1

## O=[Te]([O-])[O-].[K+].[K+] [K2TeO3, potassium tellurite]
[1]
  MIC^Te: 12000 µM
[2]; aerobic growth
  MIC^Te: 2 µg/mL
[2]; anaerobic growth
  MIC^Te: 250 µg/mL
[3]
  MIC^Te: 800 µM
[4]
  MIC^Te: 1000 µM
[5]
  MIC^Te: 2000 µM
[6]
  MIC^Te: 1000 µM
[7]; 24 h exposure to 100 μg/mL K2TeO3
  number of BCP1 viable cells: 5.00·10^5 CFU/mL
[7]; 24 h exposure to 500 μg/mL K2TeO3
  number of BCP1 viable cells: 1.00·10^5 CFU/mL
[7]; 24 h exposure to 100 or 500 μg/mL K2TeO3
  decrease of number of BCP1 viable cells: less than 1 log
[7]; 24 h exposure to K2TeO3 in LB, aerobic
  Minimal Inhibitory Concentration (MIC) of TeO3^2−: 2800 µg/mL
[7]; 24 h exposure to K2TeO3 in rich medium (LB), aerobic
  Minimal Inhibitory Concentration (MIC^Te): 11200 µM
[7]; K2TeO3 varied from 100 to 1000 μg/mL (0.4-4 mM)
  log reduction of BCP1 viable cells: 1 log
[7]; K2TeO3 varied from 100 to 2000 μg/mL (0.4-8 mM)
  log reduction of BCP1 viable cells: 2 log
[7]; at the MIC, 2800 μg/mL K2TeO3, 24 h
  log reduction of viable cells vs number at time of inoculation: 3 log
[7]; ratio of MIC^Te values
  BCP1 strain tolerance relative to MIC^Te of Corynebacterium difteriaes: ten times higher
[8]
  MIC^Te: 1250 µM

## O=[Se](O)O [Na2SeO3, sodium selenite]
[9]; 0.5 mM versus 200 mM Na2SeO3, 24 h
  log reduction in number of viable cells: 2 log
[9]; 24 h exposure to 0.5 mM Na2SeO3
  number of viable cells: 2.00·10^6 CFU/mL
[9]; 24 h exposure to 0.5 mM Na2SeO3, listed as SeO3^2−
  number of viable cells: 2·10^6 CFU/mL
[9]; 24 h exposure to 2 mM SeO3^2−
  number of viable cells: 1.72·10^6 CFU/mL
[9]; 24 h exposure to 200 mM Na2SeO3
  number of viable cells: 6.17·10^4 CFU/mL
[9]; ratio of MIC^Se values
  BCP1 tolerance, times higher than MIC^Se of Streptomyces microflavus FSHJ31: 80 times
  BCP1 tolerance, times higher than MIC^Se of Streptomyces sp. ES2-5: 4 times
[10]; 0.5 mM Na2SeO3, 72 h
  number of live cells counted: 6.33·10^6 CFU/mL
[10]; 0.5 mM Na2SeO3, 120 h
  number of viable cells: 1.2·10^6 CFU/mL
[10]; 2 mM Na2SeO3, 72 h
  number of growing cells: 4.24·10^6 CFU/mL
[10]; 2 mM Na2SeO3, 120 h
  number of growing cells: 9.83·10^5 CFU/mL
